Measurements taken from patent US20220323402A1, “TREATMENT, AMELIORATION OR PREVENTION OF A VIRAL INFECTION” (priority 2019, published 2022).

How the values were obtained:
ZIKV = assay: Infectious virus particles in supernatants of ZIKV-infected HepG2 cells, standard plaque assay in Vero cells; format: cell-based, Zika virus
Protocol: (§1) FIG. 8: Quantification of infectious virus particles in the supernatants of HepG2 cells pre-treated with CH2213191 or vehicle-treated using a standard plaque assay in Vero cells. Data represent the mean+s.e.m. from three independent experiments. P values were determined by a one-way ANOVA followed by Tukey's post-hoc test.
as §1, with “14:” for “8:”, “48 h p.i. after infection” for “pre-treated”, “ZIKV INEVH116141 (Argentina)” for “CH2213191 or vehicle-treated”
as §1, with “15:” for “8:”, “48 h p.i. after infection” for “pre-treated”, “ZIKV BeH815744 (Brazil)” for “CH2213191 or vehicle-treated”
as §1, with “16:” for “8:”, “48 h p.i. after infection” for “pre-treated”, “ZIKV MR 766 (Uganda)” for “CH2213191 or vehicle-treated”
Stock solutions of I3S and CH223191 were prepared in DMSO, aliquoted and stored according to manufacturer's instructions. For CH223191, cells were pre-treated for 90 minutes and then used for further studies. For I3S, cells were pre-treated overnight.
C6/36 mosquito cells were infected at a multiplicity of infection of 1 with ZIKV Puerto Rico strain (PRVABC59, ATCC isolate gift from MIT laboratory); viral isolate from Argentina (INEVH116141) provided by Instituto Nacional de Enfermedades Virales Humanas, Pergamino, Argentina, ZIKV Brazil (BeH815744) gene bank accession number KU365780.1 gently provided by Prof. José Luiz Proença Modena and Daniele Durigon and the reference ZIKV strain from Uganda (MR766), respectively, for 1 h at 37° C. in serum-free DMEM. Quantification of viral titers was performed by a standard plaque assay in Vero cells.

AHR = AHR modulation in NPCs, qPCR of AHR, CYP1A1, IDO1 and TDO2; format: cell-based, human; conditions: at the concentrations tested; NPCs 24 h; FIGS. 10A-10D
Protocol: FIGS. 10A-10D: AHR modulation in NPCs. NPCs were treated with I3S or a combination of I3S and CH223191. 24 h after treatment, NPCs were harvested for RNA extraction followed by qPCR analysis of AHR (FIG. 10A), CYP1A1 (FIG. 10B), IDO1 (FIG. 100) and TDO2 (FIG. 10D). Data represent the mean+s.e.m. from three independent experiments. P values were determined by Student's t-test.
RNA was extracted using the RNAeasy kit (Qiagen). cDNA was synthesized using the High-Capacity cDNA Reverse Transcription kit (Applied Biosystems) and qPCR was performed using TaqMan Fast Advanced Master Mix (Applied Biosystems). Gene expression was normalized to GAPDH. Primers and probes (Applied Biosystems) were: GAPDH Hs02786624_g1, IFNB1 Hs01077958_s1, AHR Hs00169233_m1, PML Hs00971694_m1, CYP1A1 Hs01054796_g1, IFITM1 Hs00705137_s1, CYP1B1 Hs02382916_s1, CXCL10 Hs00171042_m1, IDO1 Hs00984148_m1, IDO2 Hs01589373_m1, IFITM Hs00705137_s1, TDO Hs00194611_m1. Primers and probes for the specific detection of Zika virus RNA were utilized as previously described^81, 82. For viral load determination in vivo, brains and spleens from pups were macerated on trizol (Invitrogen) for RNA extraction. RNA pellets were resuspended in RNase-free water and quantified by spectrophotometry (NanoDrop—Thermo Scientific) and stored at −80° C. […] Quantification was compared with threshold cycle (Ct) value with a ZIKV plasmid standard curve.

[1] = system: DENV-1, DENV-2, DENV-3, DENV-4; assay: DENV plaque assay of supernatants of A549 cells; format: cell-based, dengue virus; conditions: A549 pre-treated, moi=0.1, 24 h p.i.; FIGS. 63A-63D
Protocol: FIG. 62: AHR activation boosts DENV replication. A549 cells were pretreated with the indicated concentrations of I3S for 24 h and infected with DENV-2 (moi=0.1). 48 h p.i. supernatants were harvested for plaque assay.
FIGS. 63A-63D: AHR modulation affects DENV replication. Infectious virus particles in the supernatants of A549 cells pre-treated with CH2213191 and infected with DENV-1 (FIG. 63A), DENV-2 (FIG. 63B), DENV-3 (FIG. 63C) or DENV-4 (FIG. 63D) (moi=0.1). At 24 h p.i. supernatants were harvested for plaque assay.

SMILES: Cc1ccccc1/N=N/c1ccc(NC(=O)c2ccnn2C)c(C)c1 [CH223191, 2-Methyl-2H-pyrazole-3-carboxylic Acid (2-methyl-4-o-tolylazo-phenyl)-amide]
- replication of ZIKV isolate from Argentina (INEVH116141) (ZIKV; HepG2, 48 h p.i., FIG. 14): suppressed
- replication of ZIKV isolate from Brazil (BeH815744) (ZIKV; HepG2, 48 h p.i., FIG. 15): suppressed
- replication of reference ZIKV strain from Uganda (MR 766) (ZIKV; HepG2, 48 h p.i., FIG. 16): suppressed
- reduction of ZIKV replication, infective virus particles released in HepG2 cell culture supernatants (ZIKV; HepG2, ZIKV PRVABC59, FIG. 8): more than 50%
- AHR inhibition / activation (AHR): significant AHR inhibition
- replication of the four DENV serotypes [1]: reduced
